Patent US20240124503A1, “HETEROAROMATIC PHOSPHONIUM SALTS AND THEIR USE TREATING CANCER” (FLORATEK PHARMA S.A., priority 2021, published 2024)

Columns and labels:
MDA-MB-436 = assay: Cell viability assay, MDA-MB-436; type: cell-based; conditions: Homo sapiens; breast carcinoma cell line MDA-MB-436
Method: (§1) Antitumor activity of the compounds and doxorubicin as a positive control was assessed by using the CellTiter-Blue Cell Viability Assay (Promega, #G8082) or CellTiter-Glow® Luminescent Cell Viability assay (Promega #G7572) according to the manufacturer's instructions. The compounds were tested at 5 or 6 concentrations in half-log increments (highest concentration 30 μM or 100 μM) in duplicate or triplicate well conditions.
(§2) Tumor cells were grown at 37° C. in a humidified atmosphere with 5% CO2 in RPMI 1640 or DMEM medium, supplemented with 10% (v/v) fetal calf serum and 50 μg/ml gentamicin for up to 20 passages, and were passaged once or twice weekly. Cells were harvested using TrypLE or PBS buffer containing 1 mM EDTA, and the percentage of viable cells was determined using a CASY Model TI cell counter (OMNI Life Science). Cells were harvested from exponential phase cultures, counted and plated in 96 well flat-bottom microtiter plates at a cell density depending on the cell line's growth rate (4,000-20,000 cells/well depending on the cell line's growth rate, up to 60,000 for hematological cancer cell lines) in RPMI 1640 or DMEM medium supplemented with 10% (v/v) fetal calf serum and 50 μg/ml gentamicin (140 μl/well). […] Viability of cells was quantified by the CellTiter-Blue® cell viability assay (Promega G8081) or CellTiter-Glow® Luminescent Cell Viability assay (Promega #G7572). […]

ZR-75-1 = assay: Cell viability assay, ZR-75-1; type: cell-based; conditions: Homo sapiens; breast carcinoma cell line ZR-75-1
Method: as §1, §2

ADCK3 = biological target: T1, ADCK3 (Homo sapiens, UniProt Q8NI60); assay: KINOMEscan competition binding, ADCK3
T1 construct: purchased Eurofins (KINOMEscan); host or cells: E. coli BL21-derived host (T7 phage) or HEK-293
T1 sequence (Q8NI60 163-647): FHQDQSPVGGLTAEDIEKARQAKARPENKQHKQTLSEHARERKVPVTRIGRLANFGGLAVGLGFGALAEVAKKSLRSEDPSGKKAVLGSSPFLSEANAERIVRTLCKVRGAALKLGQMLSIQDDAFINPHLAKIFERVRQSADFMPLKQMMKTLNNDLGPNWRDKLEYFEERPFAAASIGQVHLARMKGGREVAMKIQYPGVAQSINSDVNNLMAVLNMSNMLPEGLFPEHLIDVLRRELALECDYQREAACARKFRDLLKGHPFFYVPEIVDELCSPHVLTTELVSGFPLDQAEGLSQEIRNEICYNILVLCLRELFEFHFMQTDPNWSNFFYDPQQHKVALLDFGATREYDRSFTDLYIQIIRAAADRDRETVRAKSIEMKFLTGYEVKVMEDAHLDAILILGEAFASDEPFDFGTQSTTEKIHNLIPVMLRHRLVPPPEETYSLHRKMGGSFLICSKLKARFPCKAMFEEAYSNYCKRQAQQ
Method: (§3) Selected compounds were screened for kinase inhibition using the KINOMEscan™ assay (Eurofins) which is based on a competition binding assay that quantitatively measures the ability of a compound to compete with an immobilized, active-site directed ligand. The assay was performed by combining three components: DNA-tagged kinase; immobilized ligand; and the test compound. The ability of the test compound to compete with the immobilized ligand was measured via quantitative PCR of the DNA tag.
(§4) Kinase-tagged T7 phage strains were prepared in an E. coli host derived from the BL21 strain. E. coli were grown to log-phase and infected with T7 phage and incubated with shaking at 32° C. until lysis. The lysates were centrifuged and filtered to remove cell debris. The remaining kinases were produced in HEK-293 cells and subsequently tagged with DNA for qPCR detection. Streptavidin-coated magnetic beads were treated with biotinylated small molecule ligands for 30 minutes at room temperature to generate affinity resins for kinase assays. […] Kds were determined using an 11-point 3-fold compound dilution series with three DMSO control points. […] The kinase concentration in the eluates was measured by qPCR. […]
(§5) Binding constants (Kds) were calculated with a standard dose-response curve using the Hill equation: Response=Background+[Signal−Background/1+(Kd^Hill Slope/Dose^Hill Slope)] […]

ABL1-nonphosphorylated = biological target: T2, ABL1-nonphosphorylated (Homo sapiens, UniProt P00519); assay: KINOMEscan competition binding, ABL1-nonphosphorylated
T2 construct: purchased Eurofins (KINOMEscan); host or cells: E. coli BL21-derived host (T7 phage) or HEK-293
T2 sequence (P00519 whole entry): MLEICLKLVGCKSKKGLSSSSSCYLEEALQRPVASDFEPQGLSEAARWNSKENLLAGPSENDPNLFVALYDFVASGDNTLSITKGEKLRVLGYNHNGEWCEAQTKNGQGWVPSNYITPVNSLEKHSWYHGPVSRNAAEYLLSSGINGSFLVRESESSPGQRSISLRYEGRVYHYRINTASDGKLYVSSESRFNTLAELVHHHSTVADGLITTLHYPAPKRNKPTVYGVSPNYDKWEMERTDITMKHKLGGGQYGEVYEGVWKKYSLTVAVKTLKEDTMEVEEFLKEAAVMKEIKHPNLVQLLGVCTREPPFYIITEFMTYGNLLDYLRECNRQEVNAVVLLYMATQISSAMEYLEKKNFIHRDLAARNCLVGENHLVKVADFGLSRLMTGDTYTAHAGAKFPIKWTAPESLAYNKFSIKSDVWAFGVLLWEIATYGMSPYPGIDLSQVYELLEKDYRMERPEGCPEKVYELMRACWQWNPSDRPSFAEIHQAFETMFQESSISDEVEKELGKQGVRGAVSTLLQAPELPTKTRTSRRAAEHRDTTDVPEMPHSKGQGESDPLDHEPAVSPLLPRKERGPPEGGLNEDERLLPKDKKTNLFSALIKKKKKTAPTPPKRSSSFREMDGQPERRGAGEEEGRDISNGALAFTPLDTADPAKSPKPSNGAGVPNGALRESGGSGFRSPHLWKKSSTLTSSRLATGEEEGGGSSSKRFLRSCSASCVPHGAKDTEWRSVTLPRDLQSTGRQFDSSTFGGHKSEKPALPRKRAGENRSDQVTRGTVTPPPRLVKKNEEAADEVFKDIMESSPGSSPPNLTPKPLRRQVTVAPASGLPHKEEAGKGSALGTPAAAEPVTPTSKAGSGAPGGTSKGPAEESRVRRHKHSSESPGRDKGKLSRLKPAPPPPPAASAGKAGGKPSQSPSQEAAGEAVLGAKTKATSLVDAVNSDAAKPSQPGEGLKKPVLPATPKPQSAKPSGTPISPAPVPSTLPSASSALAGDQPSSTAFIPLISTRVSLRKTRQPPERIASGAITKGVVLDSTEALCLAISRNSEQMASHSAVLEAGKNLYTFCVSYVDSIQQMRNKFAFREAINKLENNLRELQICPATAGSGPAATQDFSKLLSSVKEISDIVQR
Method: as §3, §4, §5

parental H69 cells = assay: Cell viability assay, parental H69 cells; type: cell-based; conditions: Homo sapiens, NCI-H69; parental H69 cells (SCLC)
Method: as §1, §2

NCI-H460 = assay: Cell viability assay, NCI-H460; type: cell-based; conditions: Homo sapiens; lung carcinoma cell line NCI-H460
Method: as §1, §2

[1] = biological target: T3, RSK2(Kin.Dom.1-N-terminal) (Homo sapiens, UniProt P51812); assay: KINOMEscan competition binding, RSK2(Kin.Dom.1-N-terminal)
T3 construct: Kin.Dom.1; purchased Eurofins (KINOMEscan); host or cells: E. coli BL21-derived host (T7 phage) or HEK-293
T3 sequence (P51812 68-327 limits assumed): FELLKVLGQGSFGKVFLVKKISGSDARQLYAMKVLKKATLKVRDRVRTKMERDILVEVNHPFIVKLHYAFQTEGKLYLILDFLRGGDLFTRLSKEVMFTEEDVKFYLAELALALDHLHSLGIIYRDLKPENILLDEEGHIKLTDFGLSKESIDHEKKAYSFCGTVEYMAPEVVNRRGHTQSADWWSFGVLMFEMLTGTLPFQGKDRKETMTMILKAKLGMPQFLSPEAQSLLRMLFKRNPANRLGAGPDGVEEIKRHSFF
Method: as §3, §4, §5

TRKA = biological target: T4, TRKA (Homo sapiens, UniProt P04629); assay: KINOMEscan competition binding, TRKA
T4 construct: purchased Eurofins (KINOMEscan); host or cells: E. coli BL21-derived host (T7 phage) or HEK-293
T4 sequence (P04629 33-796): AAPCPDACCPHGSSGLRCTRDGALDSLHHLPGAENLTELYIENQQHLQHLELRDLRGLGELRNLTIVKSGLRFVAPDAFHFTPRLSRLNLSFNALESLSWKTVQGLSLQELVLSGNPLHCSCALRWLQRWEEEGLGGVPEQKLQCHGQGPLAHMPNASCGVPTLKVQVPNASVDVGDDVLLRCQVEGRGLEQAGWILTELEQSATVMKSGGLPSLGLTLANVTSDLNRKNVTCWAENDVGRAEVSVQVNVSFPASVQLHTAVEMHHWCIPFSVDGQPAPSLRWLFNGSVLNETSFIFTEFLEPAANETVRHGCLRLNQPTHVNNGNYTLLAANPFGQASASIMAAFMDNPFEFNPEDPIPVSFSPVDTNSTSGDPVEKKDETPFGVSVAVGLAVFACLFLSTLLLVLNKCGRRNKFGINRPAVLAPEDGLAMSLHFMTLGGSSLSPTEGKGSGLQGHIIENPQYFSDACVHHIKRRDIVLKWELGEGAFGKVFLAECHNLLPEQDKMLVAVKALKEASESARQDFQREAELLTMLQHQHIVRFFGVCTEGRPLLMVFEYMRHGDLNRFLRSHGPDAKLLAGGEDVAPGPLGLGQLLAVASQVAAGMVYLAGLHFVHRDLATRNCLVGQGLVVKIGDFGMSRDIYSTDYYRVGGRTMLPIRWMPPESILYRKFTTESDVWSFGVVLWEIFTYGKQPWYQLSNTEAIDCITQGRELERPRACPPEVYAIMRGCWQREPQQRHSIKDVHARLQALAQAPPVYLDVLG
Method: as §3, §4, §5

A549 = assay: Cell viability assay, A549; type: cell-based; conditions: Homo sapiens; lung carcinoma cell line A549
Method: as §1, §2

U-251 = assay: Cell viability assay, U-251; type: cell-based; conditions: Homo sapiens; brain carcinoma cell line U-251
Method: as §1, §2

## COc1c(O)ccc2c(=O)c(O)c(-c3ccc(CCCC[P+](c4ccccc4)(c4ccccc4)c4ccccc4)cc3)oc12 [SND190, (4-(4-(3,7-Dihydroxy-8-methoxy-4-oxo-4H1-chromen-2-yl)phenyl)butyl)triphenylphosphonium bromide]
MDA-MB-436
  IC50: 2.9 µM
ZR-75-1
  IC50: 3.5 µM
ADCK3
  Kd: 0.1 µM
ABL1-nonphosphorylated
  Kd: 0.46 µM
Parental H69 cells
  IC50: 1.42 µM
NCI-H460
  IC50: 8.63 µM
[1]
  Kd: 1.7 µM
TRKA
  Kd: 2.3 µM
A549
  IC50: 13.8 µM
U-251
  IC50: 7.54 µM
